Results as given in patent US11168073B2, “3,3-difluoroallylamines or salts thereof and pharmaceutical compositions comprising the same” (YUHAN CORPORATION, priority 2018, dated 2021).
Counter-ions that a name gives are not always drawn.

Key:
Type in all cases: biochemical
[1] = biological target: T1, recombinant human MAO-A (monoamine oxidase-A) (Homo sapiens, UniProt P21397); assay: Activity evaluation on recombinant human MAO-A (Amplex Red/HRP-coupled assay, 0.5 mM tyramine substrate); details: 0.5 mM tyramine substrate, read-out: Inhibitory Activity (IC50, nM) MAO-A
T1 construct: purchased Sigma-Aldrich
T1 sequence (P21397 1-527): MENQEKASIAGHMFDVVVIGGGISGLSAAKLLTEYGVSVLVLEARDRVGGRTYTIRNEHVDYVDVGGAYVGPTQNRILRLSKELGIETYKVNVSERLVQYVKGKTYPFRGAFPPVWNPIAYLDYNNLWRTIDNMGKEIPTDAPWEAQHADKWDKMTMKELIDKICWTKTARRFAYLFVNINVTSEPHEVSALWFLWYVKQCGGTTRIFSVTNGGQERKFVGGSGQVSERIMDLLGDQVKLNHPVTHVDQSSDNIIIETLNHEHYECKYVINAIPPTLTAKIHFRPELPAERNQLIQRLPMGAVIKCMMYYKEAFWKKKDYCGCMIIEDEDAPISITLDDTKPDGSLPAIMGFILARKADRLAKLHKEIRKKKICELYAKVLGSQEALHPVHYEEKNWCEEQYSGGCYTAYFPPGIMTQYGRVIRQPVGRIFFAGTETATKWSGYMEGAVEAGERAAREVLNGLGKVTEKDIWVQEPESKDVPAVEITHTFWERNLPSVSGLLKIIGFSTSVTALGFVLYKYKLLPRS
Summary of the method: (§1)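 Enzyme was preincubated with compounds (8-point 1:3 series, final DMSO <1%) 30 min at 37 °C in 50 mM sodium phosphate pH 7.4, then given 200 uM Amplex Red and 1 U/mL HRP with substrate. H2O2-derived resorufin fluorescence (ex 544/em 590 nm) was followed over 1–2 h; IC50 came from 4-parameter logistic fits of signal-rate inhibition versus DMSO control.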

[2] = biological target: T2, recombinant human DAO (diamine oxidase) (Homo sapiens, UniProt P19801); assay: Activity evaluation on recombinant human DAO (Amplex Red/HRP-coupled assay, 1 mM putrescine substrate); details: 1 mM putrescine substrate, read-out: Inhibitory Activity (IC50, nM) DAO
T2 construct: purchased R&D systems
T2 sequence (P19801 20-751): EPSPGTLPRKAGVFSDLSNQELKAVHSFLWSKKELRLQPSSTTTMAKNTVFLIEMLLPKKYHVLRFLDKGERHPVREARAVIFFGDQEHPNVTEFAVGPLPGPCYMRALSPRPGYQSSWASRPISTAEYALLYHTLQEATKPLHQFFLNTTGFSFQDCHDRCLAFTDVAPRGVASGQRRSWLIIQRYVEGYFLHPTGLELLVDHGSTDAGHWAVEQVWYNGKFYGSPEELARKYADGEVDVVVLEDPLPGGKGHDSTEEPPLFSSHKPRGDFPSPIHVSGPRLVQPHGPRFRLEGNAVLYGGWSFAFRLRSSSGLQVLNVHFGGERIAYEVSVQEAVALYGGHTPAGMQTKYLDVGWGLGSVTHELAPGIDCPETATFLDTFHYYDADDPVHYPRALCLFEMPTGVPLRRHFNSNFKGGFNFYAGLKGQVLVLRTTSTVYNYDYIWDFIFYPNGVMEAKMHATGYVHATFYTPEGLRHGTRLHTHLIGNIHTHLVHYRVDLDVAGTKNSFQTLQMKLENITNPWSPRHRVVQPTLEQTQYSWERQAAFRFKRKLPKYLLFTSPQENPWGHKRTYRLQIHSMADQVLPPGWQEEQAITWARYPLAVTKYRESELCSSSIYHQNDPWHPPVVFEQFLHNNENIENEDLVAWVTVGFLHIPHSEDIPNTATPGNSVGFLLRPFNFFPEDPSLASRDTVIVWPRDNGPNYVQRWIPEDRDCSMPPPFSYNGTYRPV
Summary of the method: as §1

[3] = biological target: T3, recombinant human MAO-B (monoamine oxidase-B) (Homo sapiens, UniProt P27338); assay: Activity evaluation on recombinant human MAO-B (Amplex Red/HRP-coupled assay, 1 mM benzylamine substrate); details: 1 mM benzylamine substrate, read-out: Inhibitory Activity (IC50, nM) MAO-B
T3 construct: purchased Sigma-Aldrich
T3 sequence (P27338 1-520): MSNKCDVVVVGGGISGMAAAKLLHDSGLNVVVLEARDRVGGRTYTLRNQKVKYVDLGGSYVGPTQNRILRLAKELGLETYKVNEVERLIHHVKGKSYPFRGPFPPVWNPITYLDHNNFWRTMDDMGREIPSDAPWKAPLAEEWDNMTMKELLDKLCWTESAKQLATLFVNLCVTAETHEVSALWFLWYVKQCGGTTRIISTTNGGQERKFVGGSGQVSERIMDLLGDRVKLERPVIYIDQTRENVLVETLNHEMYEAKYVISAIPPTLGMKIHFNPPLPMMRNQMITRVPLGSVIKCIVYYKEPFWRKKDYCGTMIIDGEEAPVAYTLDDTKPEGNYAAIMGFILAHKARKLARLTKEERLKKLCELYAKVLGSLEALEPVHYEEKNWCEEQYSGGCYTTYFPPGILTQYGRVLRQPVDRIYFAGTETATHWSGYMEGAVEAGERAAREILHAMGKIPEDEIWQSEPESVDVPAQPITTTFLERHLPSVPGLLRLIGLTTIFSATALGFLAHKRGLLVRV
Summary of the method: as §1

[4] = biological target: T4, recombinant human VAP-1 (Homo sapiens, UniProt Q16853); assay: Activity evaluation on recombinant human VAP-1 (Amplex Red/HRP-coupled hydrogen peroxide assay, benzylamine substrate); details: recombinant human VAP-1, benzylamine substrate; read-out: Inhibitory Activity (IC50, nM) human VAP-1
T4 construct: purchased R&D systems
T4 sequence (Q16853 1-763): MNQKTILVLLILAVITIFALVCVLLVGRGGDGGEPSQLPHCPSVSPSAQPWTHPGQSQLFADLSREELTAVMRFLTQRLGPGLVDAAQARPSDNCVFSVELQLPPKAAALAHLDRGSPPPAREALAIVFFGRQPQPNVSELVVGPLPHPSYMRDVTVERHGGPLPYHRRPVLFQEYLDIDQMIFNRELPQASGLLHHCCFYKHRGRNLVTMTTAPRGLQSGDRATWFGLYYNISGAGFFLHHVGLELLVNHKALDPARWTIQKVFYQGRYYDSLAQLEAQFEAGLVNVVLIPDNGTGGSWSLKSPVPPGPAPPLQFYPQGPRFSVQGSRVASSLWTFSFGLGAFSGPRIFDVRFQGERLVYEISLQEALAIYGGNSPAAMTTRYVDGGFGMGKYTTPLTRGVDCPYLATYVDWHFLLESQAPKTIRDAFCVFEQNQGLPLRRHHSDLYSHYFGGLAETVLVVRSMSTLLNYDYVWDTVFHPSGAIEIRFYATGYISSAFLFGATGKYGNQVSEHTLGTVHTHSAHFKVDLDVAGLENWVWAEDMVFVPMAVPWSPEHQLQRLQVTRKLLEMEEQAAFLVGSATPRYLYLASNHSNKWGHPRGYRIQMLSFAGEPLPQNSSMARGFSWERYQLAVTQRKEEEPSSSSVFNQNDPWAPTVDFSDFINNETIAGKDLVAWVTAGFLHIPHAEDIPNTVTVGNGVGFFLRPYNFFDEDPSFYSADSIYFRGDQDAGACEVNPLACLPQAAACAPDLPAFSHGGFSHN
Summary of the method: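 Recombinant human VAP-1 in 50 mM sodium phosphate pH 7.4 preincubated 30 min at 37 °C with compound (8-point 1:3 series, <1% DMSO), then 1 mM benzylamine, 200 uM Amplex Red, 1 U/mL HRP added. H2O2-derived resorufin fluorescence (ex 544/em 590) followed 1–2 h; IC50 from four-parameter fit of rate inhibition.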

NCC(Cn1ncn(Cc2cc(-c3cnn(C(F)F)c3)cs2)c1=O)=C(F)F [Example 194, 2-[2-(aminomethyl)-3,3-difluoro-allyl]-4-[[4-[1-(difluoromethyl)pyrazol-4-yl]-2-thienyl]methyl]-1,2,4-triazol-3-one Trifluoroacetate]
IC50 [1]: > 100000 nM | IC50 [2]: 64000 nM | IC50 [3]: 9200 nM | IC50 [4]: 2.9 nM

CC(C)n1cc(-c2csc(Cn3cnn(CC(CN)=C(F)F)c3=O)c2)cn1 [Example 195, 2-[2-(aminomethyl)-3,3-difluoro-allyl]-4-[[4-(1-isopropylpyrazol-4-yl)-2-thienyl]methyl]-1,2,4-triazol-3-one Trifluoroacetate]
IC50 [1]: > 100000 nM | IC50 [2]: 31000 nM | IC50 [3]: 38000 nM | IC50 [4]: 2 nM

NCC(Cn1ncn(Cc2cc(-c3cccc(-c4nc[nH]n4)c3)cs2)c1=O)=C(F)F [Example 196, 2-[2-(aminomethyl)-3,3-difluoro-allyl]-4-[[4-[3-(1H-1,2,4-triazol-3-yl)phenyl]-2-thienyl]methyl]-1,2,4-triazol-3-one Trifluoroacetate]
IC50 [1]: > 100000 nM | IC50 [2]: 1900 nM | IC50 [3]: 2900 nM | IC50 [4]: 1.4 nM

CS(=O)(=O)c1ccc(-c2ccc3cc(Cn4cnn(CC(CN)=C(F)F)c4=O)sc3c2)cc1 [Example 197, 2-[2-(aminomethyl)-3,3-difluoro-allyl]-4-[[6-(4-methylsulfonylphenyl)benzothiophen-2-yl]methyl]-1,2,4-triazol-3-one trifluoroacetate]
IC50 [1]: > 100000 nM | IC50 [2]: 2400 nM | IC50 [3]: 18000 nM | IC50 [4]: 0.8 nM

NCC(Cn1ncn(Cc2cc3ccc(-c4ccc(N5CCNCC5)cc4)cc3s2)c1=O)=C(F)F [Example 198, 2-[2-(aminomethyl)-3,3-difluoro-allyl]-4-[[6-(4-piperazin-1-ylphenyl)benzothiophen-2-yl]methyl]-1,2,4-triazol-3-one Ditrifluoroacetate]
IC50 [1]: > 100000 nM | IC50 [2]: 880 nM | IC50 [3]: 23000 nM | IC50 [4]: 4.6 nM

NCC(Cn1ncn(Cc2cc3ccc(-c4ccc(C(F)(F)F)nc4)cc3s2)c1=O)=C(F)F [Example 199, 2-[2-(aminomethyl)-3,3-difluoro-allyl]-4-[[6-[6-(trifluoromethyl)-3-pyridyl]benzothiophen-2-yl]methyl]-1,2,4-triazol-3-one Trifluoroacetate]
IC50 [1]: > 100000 nM | IC50 [2]: 15000 nM | IC50 [3]: 1100 nM | IC50 [4]: 1.7 nM

CN(C)c1ccc(-c2ccc3cc(Cn4cnn(CC(CN)=C(F)F)c4=O)sc3c2)cn1 [Example 200, 2-[2-(aminomethyl)-3,3-difluoro-allyl]-4-[[6-[6-(dimethylamino)-3-pyridyl]benzothiophen-2-yl]methyl]-1,2,4-triazol-3-one Trifluoroacetate]
IC50 [1]: > 100000 nM | IC50 [2]: > 100000 nM | IC50 [3]: 740 nM | IC50 [4]: 1.9 nM

NCC(Cn1ncn(Cc2cc3ccc(-c4ccc5c(c4)OCO5)cc3s2)c1=O)=C(F)F [Example 201, 2-[2-(aminomethyl)-3,3-difluoro-allyl]-4-[[6-(1,3-benzodioxol-5-yl)benzothiophen-2-yl]methyl]-1,2,4-triazol-3-one Trifluoroacetate]
IC50 [1]: 90800 nM | IC50 [2]: 27000 nM | IC50 [3]: 2000 nM | IC50 [4]: 2.8 nM

Cc1cc(-c2ccc3cc(Cn4cnn(CC(CN)=C(F)F)c4=O)sc3c2)cc2c1NC(=O)CC2 [Example 202, 6-[2-[[1-[2-(aminomethyl)-3,3-difluoro-allyl]-5-oxo-1,2,4-triazol-4-yl]methyl]benzothiophen-6-yl]-8-methyl-3,4-dihydro-1H-quinolin-2-one Trifluoroacetate]
IC50 [1]: > 100000 nM | IC50 [2]: 5600 nM | IC50 [3]: > 100000 nM | IC50 [4]: 2 nM

CN1C(=O)CCc2cc(-c3ccc4cc(Cn5cnn(CC(CN)=C(F)F)c5=O)sc4c3)ccc21 [Example 203, 6-[2-[[1-[2-(aminomethyl)-3,3-difluoro-allyl]-5-oxo-1,2,4-triazol-4-yl]methyl]benzothiophen-6-yl]-1-methyl-3,4-dihydroquinolin-2-one Trifluoroacetate]
IC50 [1]: > 100000 nM | IC50 [2]: 4000 nM | IC50 [3]: 780 nM | IC50 [4]: 1.5 nM

CCn1cc(-c2ccc3cc(Cn4cnn(CC(CN)=C(F)F)c4=O)sc3c2)cn1 [Example 204, 2-[2-(aminomethyl)-3,3-difluoro-allyl]-4-[[6-(1-ethylpyrazol-4-yl)benzothiophen-2-yl]methyl]-1,2,4-triazol-3-one Trifluoroacetate]
IC50 [1]: > 100000 nM | IC50 [2]: 41200 nM | IC50 [3]: 89900 nM | IC50 [4]: 0.5 nM

CS(=O)(=O)c1ccc(-c2ccc3sc(Cn4cnn(CC(CN)=C(F)F)c4=O)cc3c2)cc1 [Example 205, 2-[2-(aminomethyl)-3,3-difluoro-allyl]-4-[[5-(4-methylsulfonylphenyl)benzothiophen-2-yl]methyl]-1,2,4-triazol-3-one Trifluoroacetate]
IC50 [1]: > 100000 nM | IC50 [2]: 7670 nM | IC50 [3]: > 100000 nM | IC50 [4]: 0.8 nM

NCC(Cn1ncn(Cc2cc3cc(-c4ccc(N5CCNCC5)cc4)ccc3s2)c1=O)=C(F)F [Example 206, 2-[2-(aminomethyl)-3,3-difluoro-allyl]-4-[[5-(4-piperazin-1-ylphenyl)benzothiophen-2-yl]methyl]-1,2,4-triazol-3-one Ditrifluoroacetate]
IC50 [1]: > 100000 nM | IC50 [2]: 639 nM | IC50 [3]: 14600 nM | IC50 [4]: 2.3 nM
